{"source": "ChEMBL document CHEMBL5241064", "about": "“Specific non-genetic IAP-based protein erasers (SNIPERs) as a potential therapeutic strategy” (Eur J Med Chem, 2021)", "key": {"[1]": {"target": "E3 ubiquitin-protein ligase XIAP/Tyrosine-protein kinase ABL1/Breakpoint cluster region protein (Homo sapiens, UniProt P00519+P11274+P98170)", "sequence (P00519 whole entry)": "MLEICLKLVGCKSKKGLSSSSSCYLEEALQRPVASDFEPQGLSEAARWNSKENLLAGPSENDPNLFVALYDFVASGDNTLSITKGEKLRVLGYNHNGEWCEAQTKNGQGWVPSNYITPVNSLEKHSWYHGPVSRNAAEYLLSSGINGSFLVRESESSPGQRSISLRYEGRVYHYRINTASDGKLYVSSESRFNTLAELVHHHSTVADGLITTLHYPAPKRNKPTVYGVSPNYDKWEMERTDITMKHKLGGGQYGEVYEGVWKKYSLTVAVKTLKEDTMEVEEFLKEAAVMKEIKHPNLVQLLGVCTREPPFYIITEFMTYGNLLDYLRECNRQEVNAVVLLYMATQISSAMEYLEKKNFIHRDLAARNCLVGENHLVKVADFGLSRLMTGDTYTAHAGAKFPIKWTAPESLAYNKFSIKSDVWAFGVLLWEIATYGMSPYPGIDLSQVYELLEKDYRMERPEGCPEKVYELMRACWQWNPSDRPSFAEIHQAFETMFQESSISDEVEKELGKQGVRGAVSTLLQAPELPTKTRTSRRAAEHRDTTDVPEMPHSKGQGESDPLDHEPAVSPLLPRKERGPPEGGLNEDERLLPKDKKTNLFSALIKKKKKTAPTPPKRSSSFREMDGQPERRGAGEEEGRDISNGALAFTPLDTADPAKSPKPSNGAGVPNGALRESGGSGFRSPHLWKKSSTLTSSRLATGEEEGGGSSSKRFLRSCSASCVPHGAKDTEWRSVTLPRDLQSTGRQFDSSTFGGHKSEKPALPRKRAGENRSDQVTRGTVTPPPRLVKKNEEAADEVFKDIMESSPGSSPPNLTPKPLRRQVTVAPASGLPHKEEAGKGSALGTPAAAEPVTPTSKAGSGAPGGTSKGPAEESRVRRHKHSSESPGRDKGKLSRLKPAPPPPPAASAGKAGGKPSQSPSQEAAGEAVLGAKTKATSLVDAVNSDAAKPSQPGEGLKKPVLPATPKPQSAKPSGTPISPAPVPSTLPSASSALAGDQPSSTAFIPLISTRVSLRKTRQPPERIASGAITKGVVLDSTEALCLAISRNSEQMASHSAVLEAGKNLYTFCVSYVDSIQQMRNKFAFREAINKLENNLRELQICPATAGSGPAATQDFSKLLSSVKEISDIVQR", "sequence (P98170 whole entry)": "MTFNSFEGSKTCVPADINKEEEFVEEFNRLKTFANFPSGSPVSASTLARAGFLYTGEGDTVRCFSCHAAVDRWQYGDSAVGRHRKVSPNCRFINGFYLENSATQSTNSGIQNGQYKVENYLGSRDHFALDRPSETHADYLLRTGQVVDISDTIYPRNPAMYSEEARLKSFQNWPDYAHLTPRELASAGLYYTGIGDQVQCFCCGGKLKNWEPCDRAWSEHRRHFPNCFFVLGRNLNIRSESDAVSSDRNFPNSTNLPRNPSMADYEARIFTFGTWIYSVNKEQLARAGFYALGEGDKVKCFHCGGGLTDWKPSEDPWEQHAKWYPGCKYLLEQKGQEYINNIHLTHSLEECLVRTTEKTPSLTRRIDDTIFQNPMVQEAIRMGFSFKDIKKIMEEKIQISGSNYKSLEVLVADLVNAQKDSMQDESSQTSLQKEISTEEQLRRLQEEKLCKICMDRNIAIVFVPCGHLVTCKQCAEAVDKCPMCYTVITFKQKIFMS", "sequence (P11274 whole entry)": "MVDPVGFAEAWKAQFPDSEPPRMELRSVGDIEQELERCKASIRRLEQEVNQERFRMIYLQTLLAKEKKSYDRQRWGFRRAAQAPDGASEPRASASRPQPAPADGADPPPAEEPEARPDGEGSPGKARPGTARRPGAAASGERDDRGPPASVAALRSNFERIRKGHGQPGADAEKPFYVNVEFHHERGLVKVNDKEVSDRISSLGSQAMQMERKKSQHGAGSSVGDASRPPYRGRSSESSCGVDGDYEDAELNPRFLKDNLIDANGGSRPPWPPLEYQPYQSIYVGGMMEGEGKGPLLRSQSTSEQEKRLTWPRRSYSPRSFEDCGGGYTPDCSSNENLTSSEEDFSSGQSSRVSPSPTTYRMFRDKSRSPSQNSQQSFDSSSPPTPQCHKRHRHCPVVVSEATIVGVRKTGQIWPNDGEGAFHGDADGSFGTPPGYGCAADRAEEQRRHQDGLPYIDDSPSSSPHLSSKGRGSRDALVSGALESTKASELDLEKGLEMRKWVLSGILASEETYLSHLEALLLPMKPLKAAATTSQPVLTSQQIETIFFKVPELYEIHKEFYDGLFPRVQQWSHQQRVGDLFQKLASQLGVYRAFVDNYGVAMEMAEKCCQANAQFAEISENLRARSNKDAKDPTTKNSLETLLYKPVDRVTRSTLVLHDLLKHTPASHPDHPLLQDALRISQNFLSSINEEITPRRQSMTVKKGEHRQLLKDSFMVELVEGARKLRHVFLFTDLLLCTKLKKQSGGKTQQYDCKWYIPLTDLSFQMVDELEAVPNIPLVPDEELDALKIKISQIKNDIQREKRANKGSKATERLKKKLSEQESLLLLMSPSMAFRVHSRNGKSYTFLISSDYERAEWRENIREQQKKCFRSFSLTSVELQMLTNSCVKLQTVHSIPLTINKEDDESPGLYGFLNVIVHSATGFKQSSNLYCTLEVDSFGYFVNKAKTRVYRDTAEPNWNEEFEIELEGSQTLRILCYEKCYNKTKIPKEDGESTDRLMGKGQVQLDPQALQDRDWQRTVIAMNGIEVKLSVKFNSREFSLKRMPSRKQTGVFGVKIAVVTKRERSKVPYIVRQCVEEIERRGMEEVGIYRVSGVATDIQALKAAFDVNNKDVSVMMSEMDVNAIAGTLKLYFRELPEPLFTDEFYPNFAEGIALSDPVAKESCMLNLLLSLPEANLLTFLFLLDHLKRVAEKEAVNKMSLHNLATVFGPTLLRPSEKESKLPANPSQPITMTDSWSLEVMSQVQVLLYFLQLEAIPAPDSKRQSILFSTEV", "test": "Protac activity at XIAP/BCR-ABL in human K562 cells assessed as induction of BCR-ABL protein degradation measured after 6 hrs by Western blot analysis", "assay_type": "cell-based"}, "[2]": {"target": "Baculoviral IAP repeat-containing protein 2/E3 ubiquitin-protein ligase XIAP/Breakpoint cluster region protein/Tyrosine-protein kinase ABL1 (Homo sapiens, UniProt P00519+P11274+P98170+Q13490)", "sequence (P00519 whole entry)": "as the sequence (P00519 whole entry) above", "sequence (P98170 whole entry)": "as the sequence (P98170 whole entry) above", "sequence (P11274 whole entry)": "as the sequence (P11274 whole entry) above", "sequence (Q13490 whole entry)": "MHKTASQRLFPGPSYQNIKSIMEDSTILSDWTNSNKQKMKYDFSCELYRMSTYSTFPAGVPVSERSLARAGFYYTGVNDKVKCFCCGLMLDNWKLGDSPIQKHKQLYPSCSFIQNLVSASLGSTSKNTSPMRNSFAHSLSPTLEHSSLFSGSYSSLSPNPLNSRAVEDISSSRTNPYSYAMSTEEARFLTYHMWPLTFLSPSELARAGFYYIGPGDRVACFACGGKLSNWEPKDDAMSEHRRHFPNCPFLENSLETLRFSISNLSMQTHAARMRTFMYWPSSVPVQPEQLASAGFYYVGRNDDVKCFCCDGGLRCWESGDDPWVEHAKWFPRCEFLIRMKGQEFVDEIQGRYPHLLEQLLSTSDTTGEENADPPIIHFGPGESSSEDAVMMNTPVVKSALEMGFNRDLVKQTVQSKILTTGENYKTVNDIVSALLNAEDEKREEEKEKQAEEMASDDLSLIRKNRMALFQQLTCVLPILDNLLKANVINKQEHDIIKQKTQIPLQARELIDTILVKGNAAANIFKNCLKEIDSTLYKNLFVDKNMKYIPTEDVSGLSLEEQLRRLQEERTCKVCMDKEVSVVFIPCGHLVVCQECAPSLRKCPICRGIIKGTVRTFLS", "test": "Protac activity at IAP/BCR-ABL in human K562 cells assessed as induction of BCR-ABL protein degradation measured after 6 hrs by Western blot analysis", "assay_type": "cell-based"}, "[3]": {"target": "Baculoviral IAP repeat-containing protein 2/Cellular retinoic acid-binding protein 2 (Homo sapiens, UniProt P29373+Q13490)", "sequence (P29373 whole entry)": "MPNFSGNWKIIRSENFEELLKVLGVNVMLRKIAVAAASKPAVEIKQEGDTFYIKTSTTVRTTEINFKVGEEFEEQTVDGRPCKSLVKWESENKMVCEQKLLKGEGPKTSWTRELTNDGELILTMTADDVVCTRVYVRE", "sequence (Q13490 whole entry)": "as the sequence (Q13490 whole entry) above", "test": "Protac activity at cIAP1 (unknown origin)/CRABP-II (unknown origin) assessed as protein degradation"}, "[4]": {"target": "Estrogen receptor/E3 ubiquitin-protein ligase XIAP (Homo sapiens, UniProt P03372+P98170)", "sequence (P03372 whole entry)": "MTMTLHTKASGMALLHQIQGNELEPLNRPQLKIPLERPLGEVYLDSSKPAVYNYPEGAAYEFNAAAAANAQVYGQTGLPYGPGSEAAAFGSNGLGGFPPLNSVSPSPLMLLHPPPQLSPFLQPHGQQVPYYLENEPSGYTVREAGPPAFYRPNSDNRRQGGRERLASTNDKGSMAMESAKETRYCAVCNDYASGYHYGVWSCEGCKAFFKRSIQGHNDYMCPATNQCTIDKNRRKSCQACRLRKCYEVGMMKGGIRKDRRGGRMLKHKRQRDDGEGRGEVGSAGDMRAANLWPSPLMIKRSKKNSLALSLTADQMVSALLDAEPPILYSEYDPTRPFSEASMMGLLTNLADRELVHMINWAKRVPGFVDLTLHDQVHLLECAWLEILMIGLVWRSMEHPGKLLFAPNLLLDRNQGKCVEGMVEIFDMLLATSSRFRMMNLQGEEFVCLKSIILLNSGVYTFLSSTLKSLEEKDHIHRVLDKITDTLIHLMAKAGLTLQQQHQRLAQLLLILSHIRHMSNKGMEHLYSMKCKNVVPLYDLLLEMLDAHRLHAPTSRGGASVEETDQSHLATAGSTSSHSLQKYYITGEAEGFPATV", "sequence (P98170 whole entry)": "as the sequence (P98170 whole entry) above", "test": "Protac activity at XIAP (unknown origin)/ERalpha (unknown origin) assessed as protein degradation", "assay_type": "protein assay"}}}
{"smiles": "CN[C@@H](C)C(=O)N[C@H](C(=O)N1CCC[C@H]1c1nc(C(=O)c2cccc(OCCOCCOCCOCC(=O)N3CCN(c4cc(Nc5ncc(C(=O)Nc6c(C)cccc6Cl)s5)nc(C)n4)CC3)c2)cs1)C1CCCCC1", "values": [{"measurement": "EC50", "setting": "[1]", "value": "< 100", "unit": "nM"}, {"measurement": "EC50", "setting": "[2]", "value": "< 100", "unit": "nM"}]}
{"smiles": "CC1=C(/C=C/C(C)=C/C=C/C(C)=C/C(=O)O)C(C)(C)CC/C1=N\\OCC(=O)NCCOCCOCCOC(=O)[C@H](CC(C)C)NC(=O)[C@@H](O)[C@H](N)Cc1ccccc1", "values": [{"measurement": "EC50", "setting": "[3]", "value": "≥ 1000", "unit": "nM"}]}
{"smiles": "CC/C(=C(\\c1ccc(O)cc1)c1ccc(OCCN(C)C(=O)COCCOCCOCc2cccc(O[C@H]3C[C@@H](C(=O)N[C@@H]4CCCc5ccccc54)N(C(=O)[C@@H](NC(=O)[C@H](C)NC)C4CCCCC4)C3)c2)cc1)c1ccccc1", "values": [{"measurement": "EC50", "setting": "[4]", "value": "< 100", "unit": "nM"}]}
{"smiles": "CC/C(=C(\\c1ccc(O)cc1)c1ccc(OCCN(C)C(=O)COCCCCOc2cccc(C(=O)c3csc([C@@H]4CCCN4C(=O)[C@@H](NC(=O)[C@H](C)NC)C4CCCCC4)n3)c2)cc1)c1ccccc1", "values": [{"measurement": "EC50", "setting": "[4]", "value": "< 100", "unit": "nM"}]}
